Results reported in article PMC9410094 (Marine Drugs, 2022).
In brackets after ≈: the same amount, converted by molar mass. Positions of bridges follow the written chain, without caps; N, C: chain ends. Residues, ends and D or L forms follow the SMILES beside them.

Columns and labels:
Gram-positive bacteria = assay type: cell-based; settings: 24 h
Description: (§1) The antimicrobial activity of the peptides was determined via the method of two-fold serial dilutions in sterile 96-well flat-bottom polystyrene microplates (Eppendorf #0030730011) in Mueller–Hinton broth (MHB, Sigma, Kawasaki, Kanagawa, Japan) supplemented with 0.9% NaCl. Bacterial cultures were grown in MHB at 37 °C until the culture reached an optical density OD600 of 1.0 and diluted with the broth so that to reach a final cell concentration of 10^6 CFU/mL. Then 50 μL of the test culture were added to 50 μL of aqueous solutions of the peptides, previously diluted in 0.1% sterilized bovine serum albumin (BSA) to reduce non-specific binding of the peptides to the surface of the plates. Next, the plate was incubated for 24 h at 37 °C and 950 rpm on the plate thermoshaker (Biosan). The values of the minimum inhibitory concentrations (MIC) were determined as the minimum concentration of the peptide, at which there is no culture growth. The results were expressed as the median values of three independent experiments performed in triplicate.

[1] = RP-HPLC retention time as measure of hydrophobicity; assay type: physicochemical; settings: chromatographic, semipreparative RP-HPLC, C18 column, linear gradient 5 to 80% (v/v) acetonitrile in water with 0.1% TFA within 50 minutes; used as measure of hydrophobicity
Description: Table S1. Characteristics of the recombinant AMPs.
1 Mean Kyte–Doolittle hydrophobicity index (GRAVY) was calculated using the Expasy ProtParam tool. The maximum and minimum values of this index are +4.5 and -4.5 for poly-Ile and poly-Arg sequences, respectively. 2 Retention times were measured using semipreparative reversed-phase high-performance liquid chromatography (RP - HPLC) on a C18 column with a linear gradient from 5 to 80% ( v/v) acetonitrile in water containing 0.1% trifluoroacetic […]
acid (TFA) within 50 minutes. […]

Gram-negative bacteria = experiment: Geometric mean of MICs, Gram-negative panel; assay type: cell-based
Description: as §1

human red blood cells = assay type: cell-based
Description: Figure 4 (A) Hemolytic effect on human red blood cells after 2 h incubation (hemoglobin release assay). (B) Cytotoxicity toward transformed human embryonic kidney cells after 20 h incubation (MTT-assay). The positive control used was 0.1% Triton X-100 and sterile PBS as a negative control. Melittin was used as an additional positive control. The data are presented as the mean ± SD of three independent experiments.
The hemolytic activity of compounds was performed using human red blood cells (hRBS) of healthy donor. Fresh blood was centrifuged to separate the erythrocyte fraction for 15 min at 500 g and washed three times with cold phosphate-buffered saline (PBS) (pH 7.4), after which an 8% (v/v) suspension of erythrocytes in PBS was prepared. Then, 50 µL of erythrocyte suspension was added to the test peptides, previously were dissolved in 50 µL of 0.1% BSA. The plate was incubated for 1.5 h at 37 °C and 950 rpm on the plate thermoshaker. After incubation, the plates were centrifuged for 15 min at 1000 g to settle intact erythrocytes. Next, aliquots of the supernatant were transferred to another plate to measure the amount of hemoglobin release by the absorbance of the solution at 405 nm. As “zero lysis” we used the supernatant obtained after centrifugation of erythrocytes incubated in a PBS solution without the addition of a peptide. As “100% lysis”, we used the supernatant obtained after centrifugation of erythrocytes incubated in a 0.1% Triton X-100, causing their complete lysis. The assays were conducted three times. The quantitative data were presented as an average means with standard deviations. Hemolysis(%)=OD405(compound)−OD405(zerolysis)/OD405(100%lysis)−OD405(zerolysis)×100%

[2] = tested on: P. aeruginosa PAO1 mature biofilms; experiment: Effect on mature biofilms, viability by MTT; settings: P. aeruginosa PAO1 pre-formed biofilm, 2-h exposure
Description: Biofilm viability was measured by tetrazolium salt reduction (right panel). Values are presented as means ± the standard deviation (SD) of three independent experiments.
The effect of peptides on pre-formed biofilms was evaluated as follows. Biofilms were grown on a 96-well plate at 32 °C for 24 h and stirred at 120 rpm to ensure biofilm formation primarily on the wall of the wells. […] Bacterial survival in the biofilms after 2-h exposure was evaluated via a MTT assay after incubation with a tested peptide. Then, wells were rinsed with sterile water, treated with an MTT solution (Sigma, Kawasaki, Kanagawa, Japan) in PBS, and incubated for 4 h at 37 °C. Next, the medium was removed. The resulting formazan crystals were dissolved in a mixture of EtOH and DMSO (1:1) for 10 min. The optical density of the solution was measured at 570 nm. Bacterial survival was calculated as percent relative to samples without antimicrobial agent. All data were obtained from at least three independent experiments in 3 repetitions.

E. coli ATCC 25922 = experiment: Mice septicemia model, survival; settings: BALB/c mice, n = 8, E. coli ATCC 25922 i.p. with 2.5% mucin
Description: Ciprofloxacin (the single dose of 10 mg/kg) and saline were used as the positive and negative controls, respectively. […] Mice were controlled once daily for their health status during 7 post-infection days.
Then, we examined an efficacy of AMPs in the mice septicemia model using 8 animals in a group (Figure 10B).
Experiments were performed with female 8–10-week-old BALB/c mice (22–24 g, “Andreevka” laboratory animal nursery FMBA, Russia). […] All animal experiments were performed at the State Research Center for Applied Microbiology and Biotechnology (SRCAMB) in Obolensk, Russia. The animals were housed in groups of 5 in polycarbonate cages. Food and water were provided ad libitum.
A total of 4 groups with 8 animals were used. The first group received ciprofloxacin (Sigma, Kawasaki, Kanagawa, Japan) administered i.p. once (1 h post-infection) at a dose of 10 mg/kg. The second group received saline (as a vehicle control) administered i.p. once (1 h post-infection). […] Survival was monitored for 7 days. After that survived animals were euthanized by CO2 asphyxiation.

E. coli ML-35p = settings: for Fold reduction of antibacterial activity in the presence of serum: MHB + 0.9% NaCl with 25% FBS versus without
Description: Initially, antimicrobial activity of abarenicin and UuBRI-21 was evaluated against the reference strain of E. coli (ML-35p) under various conditions (Table 1). Minimal inhibitory concentrations (MICs) were determined via two-fold serial dilutions in 96-well polystyrene plates. Serial dilutions were made in 0.1% bovine serum albumin (BSA) to minimize the absorption of peptides on the surface of plate wells. Mueller–Hinton broth (MHB) supplemented with 0.9% NaCl was used as the standardized medium.
as §1, with “Bacterial” for “The antimicrobial activity of the peptides was determined via the method of two-fold serial dilutions in sterile 96-well flat-bottom polystyrene microplates (Eppendorf #0030730011) in Mueller–Hinton broth (MHB, Sigma, Kawasaki, Kanagawa, Japan) supplemented with 0.9% NaCl. Bacterial”

E. coli 3421/E19 = experiment: Neutropenic mice peritonitis model; assay type: in vivo, BALB/c mice; settings: for Efficacy in the neutropenic peritonitis model (in words): single i.v. dose of 10 mg/kg, E. coli 3421/E19
Description: Immune-deficient mice were inoculated intraperitoneally (i.p.) with bacterial suspension. Antimicrobial agent was administered 1 h post-infection, and colony counts in blood and peritoneal fluid (PF) were determined 5 h later.
(A) The mice peritonitis model. […] Horizontal bars indicate means ± SD.
Food and water were provided ad libitum.
CFU counts were determined from blood and peritoneal fluid (PF) 5 h after treatment. The mice were euthanized by CO2 asphyxiation and blood was collected by axillary cut down. A total of 2 mL sterile saline was injected i.p. and the abdomen gently massaged before it was opened, fluid sampled with a pipette, serially diluted and placed on Endo agar supplemented with 20 µg/mL of tetracycline for CFU identification.

Compound	Minimum inhibitory concentration (MIC): Gram-positive Geometric mean (Gram-positive bacteria)	RP-HPLC Retention Time [1]	Hemolytic activity (in words) (human red blood cells)	Fold reduction of antibacterial activity in the presence of serum (E. coli ML-35p)	Efficacy in the neutropenic peritonitis model (in words) (E. coli 3421/E19)	other results
CC[C@H](C)[C@@H]1NC(=O)[C@H](CCCNC(=N)N)NC(=O)[C@H](C(C)C)NC(=O)CNC(=O)[C@H](CC(N)=O)NC(=O)[C@H](CCCNC(=N)N)NC(=O)[C@H](CCCNC(=N)N)NC(=O)[C@H](Cc2ccc(O)cc2)NC(=O)[C@@H]2CSSC[C@H](NC1=O)C(=O)N[C@@H](Cc1ccc(O)cc1)C(=O)N[C@@H](CCCNC(=N)N)C(=O)N[C@@H](CCCNC(=N)N)C(=O)N[C@H](C(=O)N[C@@H](CC(N)=O)C(=O)O)CSSC[C@H](NC(=O)[C@H](Cc1ccc(O)cc1)NC(=O)CN)C(=O)N[C@@H](Cc1ccccc1)C(=O)N[C@@H]([C@@H](C)O)C(=O)N[C@@H](C)C(=O)N2 [Ap4] (H-GYCFTACYRRNGVRICYRRCN-OH; disulfide 3-20, 7-16)	0.63 µM (≈ 1.62 µg/mL)	24.79 min	ability to lyse hRBCs is stronger			Minimum inhibitory concentration (MIC): Gram-negative Geometric mean (Gram-negative bacteria; geometric mean (GM) of MICs against the 14 Gram-negative strains of Figure 2): 0.13 µM (≈ 0.334 µg/mL)
O=C(O)c1cn(C2CC2)c2cc(N3CCNCC3)c(F)cc2c1=O [ciprofloxacin, reference compound]						Effect on bacteria inside mature biofilm (in words) [2]: not able to impair bacteria inside biofilm; Survival (in words) (E. coli ATCC 25922; single i.p. dose of 10 mg/kg 1 h post-infection): survival of all mice
CC[C@H](C)[C@@H]1NC(=O)[C@H](CCCNC(=N)N)NC(=O)[C@H](C(C)C)NC(=O)CNC(=O)[C@H](CC(N)=O)NC(=O)[C@H](CCCNC(=N)N)NC(=O)[C@H](Cc2ccc(O)cc2)NC(=O)[C@H](Cc2ccc(O)cc2)NC(=O)[C@@H]2CSSC[C@H](NC1=O)C(=O)N[C@@H](C(C)C)C(=O)N[C@@H](CCCNC(=N)N)C(=O)N[C@@H](Cc1ccc(O)cc1)C(=O)N[C@H](C(=O)N[C@@H](CC(N)=O)C(=O)O)CSSC[C@H](NC(=O)[C@H](Cc1ccccc1)NC(=O)CN)C(=O)NCC(=O)N[C@@H](Cc1ccc(O)cc1)C(=O)N[C@@H](C)C(=O)N2 [UuBRI-21] (H-GFCGYACYYRNGVRICVRYCN-OH; disulfide 3-20, 7-16)	2 µM (≈ 4.95 µg/mL)	28.48 min	moderate hemolytic activity	16 fold	lack of effectivity	
CC[C@H](C)[C@@H]1NC(=O)[C@H](CCCNC(=N)N)NC(=O)[C@H](C(C)C)NC(=O)CNC(=O)[C@H](CC(N)=O)NC(=O)[C@H](CCCNC(=N)N)NC(=O)[C@H](C)NC(=O)[C@H](Cc2ccc(O)cc2)NC(=O)[C@@H]2CSSC[C@H](NC1=O)C(=O)N[C@@H](Cc1ccc(O)cc1)C(=O)N[C@@H](CCCNC(=N)N)C(=O)N[C@@H](CCCNC(=N)N)C(=O)N[C@H](C(=O)N[C@@H](CC(N)=O)C(=O)O)CSSC[C@H](NC(=O)[C@H](Cc1ccc(O)cc1)NC(=O)CN)C(=O)N[C@@H](Cc1ccccc1)C(=O)N[C@@H]([C@@H](C)O)C(=O)N[C@@H](C)C(=O)N2 [Ap3] (H-GYCFTACYARNGVRICYRRCN-OH; disulfide 3-20, 7-16)	1 µM (≈ 2.49 µg/mL)	25.47 min	ability to lyse hRBCs is stronger			
CC(C)[C@@H]1NC(=O)[C@H](Cc2ccc(O)cc2)NC(=O)[C@H](Cc2c[nH]c3ccccc23)NC(=O)[C@@H](NC(=O)[C@H](Cc2ccccc2)NC(=O)CN)CSSC[C@@H](C(=O)N[C@@H](CC(N)=O)C(=O)O)NC(=O)[C@H](CCCNC(=N)N)NC(=O)[C@H](CCCNC(=N)N)NC(=O)[C@H](Cc2ccc(O)cc2)NC(=O)[C@@H]2CSSC[C@H](NC1=O)C(=O)N[C@@H](C)C(=O)N[C@@H](CCCNC(=N)N)C(=O)N[C@@H](CCCNC(=N)N)C(=O)N[C@@H](CC(N)=O)C(=O)NCC(=O)N[C@@H](C)C(=O)N[C@@H](CCCNC(=N)N)C(=O)N[C@@H](C(C)C)C(=O)N2 [AA139, reference compound] (H-GFCWYVCARRNGARVCYRRCN-OH; disulfide 3-20, 7-16)	4 µM (≈ 10.2 µg/mL)	25.67 min		4 fold	effective	Therapeutic efficacy (survival) after one-week experiment (E. coli ATCC 25922; peptide i.p. 10 mg/kg at 1 and 4 h post-infection, 7 days): 87.5%; Minimum Inhibitory Concentration, MHB + 0.9% NaCl + 25% FBS (E. coli ML-35p; Table 1, medium with 25% fetal bovine serum): 1 µM; Minimum Inhibitory Concentration, MHB + 0.9% NaCl (E. coli ML-35p; Table 1, without FBS, dilutions in 0.1% BSA): 0.25 µM; Bacterial burden in mice blood (in words) (E. coli 3421/E19; neutropenic BALB/c mice, n = 5, i.p. infection, single i.v. dose 1 h post-infection (AMPs 10 mg/kg, polymyxin B 5 mg/kg), CFU 5 h after treatment): complete reduction; Reduction of the CFU level in peritoneal fluid (PF) (E. coli 3421/E19; neutropenic BALB/c mice, n = 5, single i.v. dose (AMPs 10 mg/kg, polymyxin B 5 mg/kg), CFU 5 h after treatment): ~ 5 log
CC[C@H](C)[C@@H]1NC(=O)[C@H](CCCNC(=N)N)NC(=O)[C@H](C)NC(=O)CNC(=O)[C@H](CC(N)=O)NC(=O)[C@H](CCCNC(=N)N)NC(=O)[C@H](CCCNC(=N)N)NC(=O)[C@H](C)NC(=O)[C@@H]2CSSC[C@H](NC1=O)C(=O)N[C@@H](Cc1ccc(O)cc1)C(=O)N[C@@H](CCCNC(=N)N)C(=O)N[C@@H](CCCNC(=N)N)C(=O)N[C@H](C(=O)N[C@@H](CC(N)=O)C(=O)O)CSSC[C@H](NC(=O)[C@H](Cc1ccc(O)cc1)NC(=O)CN)C(=O)N[C@@H](Cc1ccccc1)C(=O)N[C@@H]([C@@H](C)O)C(=O)N[C@@H](C)C(=O)N2 [Ap11] (H-GYCFTACARRNGARICYRRCN-OH; disulfide 3-20, 7-16)	4 µM (≈ 9.8 µg/mL)	25.17 min		4 fold	ineffective	Residual viability of bacteria in mature biofilm ([2]; 16 µM): about 20%; Fold reduction in the antimicrobial activity compared to Ap4 (Gram-negative bacteria; Gram-negative GM values): at least 5 fold
